Reference: patent publication EP4722228A1, “NEW COMPOUND TARGETING MUSK AND USE THEREOF” (The University of Tokyo, priority 2023, dated 2024)
Bridge positions count the residues as written; N and C are the ends. Square brackets hold non-standard residues; d marks the D form. Peptide text beside a SMILES is read from it. I, II: the chains in the order shown. * marks the point of attachment. Palmitoyl = CCCCCCCCCCCCCCCC(=O)*; PEG3 = NCCOCCOCCOCCC(=O)O; Dap = NC[C@H](N)C(=O)O

Legend:
[1] = test system: rat PTMG model using anti-acetylcholine receptor monoclonal antibody (mAb35); assay: Wire-hang Test (Hanging Wire Test) in rat PTMG model; assay type: in vivo; details: approx. 30 hours after antibody
Description: (§1) 5-week-old female rats (n=20, LEW/CrlCrlj, 4 weeks old when carried in, Jackson Laboratory Japan) were divided into four groups (Group A, Group B, Group C, and Group D) using body weight measurement results as indexes. Vehicle was administered to Group A, and the test compound MuSK7-pal dissolved in vehicle was administered intravenously to each of Group B (3 mg/kg), Group C (2 mg/kg), and Group D (1 mg/kg) (Day 0). Two hours after intravenous administration, an anti-nicotinic acetylcholine receptor monoclonal antibody (mAb35, National Hospital Organization Nagasaki Kawatana Medical Center) dissolved in PBS (pH 7.4) as a drug for inducing the pathology of myasthenia gravis was administered intraperitoneally to all animals at 200 µg/rat (Day 0). The vehicle, which was a solvent of the compound, was phosphate-buffered saline (PBS) at pH 7.4 containing 20% hydroxypropyl-β-cyclodextrin and 0.02% polysorbate 80 (the same applies to Example 3(2)).
Approximately 30 hours after antibody administration, the muscle strength of the rats was measured using a lid (made of wire mesh) of a lidded plastic cage (Clean 200-TPX cage; CL-0108-2, CLEA Japan, Inc.). Specifically, the rats were left for 15 minutes or longer, and after confirming that they were in a resting state, they were placed on the cage lid. Next, the cage lid was lightly shaken about three times so that the rats would grasp the cage lid, and the cage lid was turned upside down. The inverted lid was held at a height (about 60 cm from the floor), which was high enough to prevent the rats from getting down easily but low enough not to injure them if they fell. The latency until the rats fell from the cage lid was measured for up to 120 seconds.
as §1, with “(n=24,” for “(n=20,”, “(0.5” for “(3”, “(0.25” for “(2”, “(0.1” for “(1”, “0).” for “0). The vehicle, which was a solvent of the compound, was phosphate-buffered saline (PBS) at pH 7.4 containing 20% hydroxypropyl-β-cyclodextrin and 0.02% polysorbate 80 (the same applies to Example 3(2)).”
The Wire-hang Test was performed approximately 30 hours after antibody administration. The implementation procedure was the same as that in (1) B above.
(§2) 5-week-old female rats (LEW/CrlCrlj, 4 weeks old when carried in, Jackson Laboratory Japan) were divided into three groups (Group A, Group B, and Group C) using body weight measurement results as indexes. The test compound (tetramer of Ub012 (EAAAK)3) dissolved in vehicle was administered intravenously to Group A (5 mg/kg) (n=5), the test compound (tetramer of Ub012(ΔGG) (EAAAK)3) dissolved in vehicle was administered intravenously to Group B (5 mg/kg) (n=5), and vehicle was administered intravenously to Group C (n=5), respectively (Day 0). Two hours after intravenous administration, an anti-nicotinic acetylcholine receptor monoclonal antibody (mAb35, National Hospital Organization Nagasaki Kawatana Medical Center) dissolved in PBS (pH 7.4) as a drug for inducing the pathology of myasthenia gravis was administered intraperitoneally to all animals at 200 µg/rat (Day 0).
The Wire-hang Test was performed approximately 30 hours after antibody administration. The implementation procedure was the same as that in Example 3(1) B.

[2] = test system: rat PTMG model using anti-acetylcholine receptor monoclonal antibody (mAb35); assay: Movement score in rat PTMG model; assay type: in vivo
Description: as §1
The movement of the animals was evaluated at each time point of 9, 24, 33, 48, 57, and 72 hours (hr) after antibody administration according to six-level evaluation criteria (Score). The evaluation criteria were as follows. • 0: Normal • 1: Reduced grip strength in forelimbs and hindlimbs • 2: Incomplete paralysis of hindlimbs • 3: Complete paralysis of hindlimbs and inability to stand • 4: Moribund • 5: Death
The average score of the rats in each group was calculated. In addition, in a cage in which a rat determined to have a score of 2 or higher was present, crushed transport agar (manufactured by Oriental Yeast Co., Ltd.) and pellet feed were provided.
5-week-old female rats (n=24, LEW/CrlCrlj, 4 weeks old when carried in, Jackson Laboratory Japan) were divided into four groups (Group A, Group B, Group C, and Group D) using body weight measurement results as indexes. Vehicle was administered to Group A, and the test compound MuSK7-pal dissolved in vehicle was administered intravenously to each of Group B (0.5 mg/kg), Group C (0.25 mg/kg), and Group D (0.1 mg/kg) (Day 0). Two hours after intravenous administration, an anti-nicotinic acetylcholine receptor monoclonal antibody (mAb35, National Hospital Organization Nagasaki Kawatana Medical Center) dissolved in PBS (pH 7.4) as a drug for inducing the pathology of myasthenia gravis was administered intraperitoneally to all animals at 200 µg/rat (Day 0).
The movement of the animals was evaluated at each time point of 9, 24, 33, 48, 57, and 72 hours (hr) after antibody administration according to six-level evaluation criteria (Score). The evaluation criteria were the same as those in (1) B above.
as §2
The movement of the animals was evaluated at each time point of 9, 24, 33, 48, 57, and 72 hours (hr) after antibody administration according to six-level evaluation criteria (Score). The evaluation criteria were the same as those in Example 3(1) B.

In the case of `CCCCCCCCCCCCCCCC(=O)NCCCC[C@H](NC(=O)[C@H](CNC(=O)CCOCCOCCOCCNC(=O)CNC(=O)[C@@H]1CSCC(=O)N[C@H](Cc2ccc(O)cc2)C(=O)N2CCC[C@H]2C(=O)N[C@@H](CO)C(=O)N[C@@H](Cc2ccc(O)cc2)C(=O)N[C@@H](Cc2c[nH]cn2)C(=O)N[C@@H]([C@@H](C)O)C(=O)N[C@@H](CC(N)=O)C(=O)N[C@@H](C(C)C)C(=O)N[C@@H](C(C)C)C(=O)N[C@@H](C)C(=O)N[C@@H](CO)C(=O)N[C@@H](CC(C)C)C(=O)N[C@@H](CCCCN)C(=O)N[C@@H](CCCNC(=N)N)C(=O)N1)NC(=O)CCOCCOCCOCCNC(=O)CNC(=O)[C@@H]1CSCC(=O)N[C@H](Cc2ccc(O)cc2)C(=O)N2CCC[C@H]2C(=O)N[C@@H](CO)C(=O)N[C@@H](Cc2ccc(O)cc2)C(=O)N[C@@H](Cc2c[nH]cn2)C(=O)N[C@@H]([C@@H](C)O)C(=O)N[C@@H](CC(N)=O)C(=O)N[C@@H](C(C)C)C(=O)N[C@@H](C(C)C)C(=O)N[C@@H](C)C(=O)N[C@@H](CO)C(=O)N[C@@H](CC(C)C)C(=O)N[C@@H](CCCCN)C(=O)N[C@@H](CCCNC(=N)N)C(=O)N1)C(N)=O` [MuSK7-pal] (I: {CH2CO}-[dY]PSYHTNVVASLKRCG[PEG3][Dap]K(Palmitoyl)-NH2 / II: {CH2CO}-[dY]PSYHTNVVASLKRCG[PEG3]; amide I:18-II:C; thioether I:N-I:15, II:N-II:15), the “mean latency to fall” value ([1]; 0.1 mg/kg intravenously (Group D, Example 3(2))) is reported as 25.3 s, the “mean latency to fall” value ([1]; 0.25 mg/kg intravenously (Group C, Example 3(2))) is reported as 32.3 s and the “mean latency to fall” value ([1]; 0.5 mg/kg intravenously (Group B, Example 3(2))) is reported as 11.3 s. The “mean latency to fall” value ([1]; 1 mg/kg intravenously (Group D, Example 3(1)), max 120 seconds) was 69.6 s, the “mean latency to fall” value ([1]; 2 mg/kg intravenously (Group C, Example 3(1)), max 120 seconds) was 29.2 s and the “mean latency to fall” value ([1]; 3 mg/kg intravenously (Group B, Example 3(1)), max 120 seconds) was 17.6 s. For the same compound, the movement score ([2]; 0.1 mg/kg intravenously (Group D, Example 3(2)), not significant vs Group A) was “the scores remained low compared to the control group”, the movement score ([2]; 0.25 mg/kg intravenously (Group C, Example 3(2)), Dunn's test) was “significantly lower than those in Group A at all measurement points except at 9 hr and at 57 hr” and the movement score ([2]; 0.5 mg/kg intravenously (Group B, Example 3(2)), Dunn's test) was “significantly lower than those in Group A at all measurement points after 24 hr”. The movement score ([2]; 1 mg/kg intravenously (Group D, Example 3(1)), all individuals, all measurement points, score 0-5) was 0, the movement score ([2]; 2 mg/kg intravenously (Group C, Example 3(1)), 9 to 72 hr, score 0-5) was “the scores remained low at all measurement points” and the movement score ([2]; 3 mg/kg intravenously (Group B, Example 3(1)), 9 to 72 hr, score 0-5) was “the scores remained low at all measurement points”.
